This passage reports inhibition and IC50 results from US20030195205A1, “PDE9 inhibitors for treating cardiovascular disorders” (Pfizer Inc., priority 2001, published 2003).

One may read the IC50 as the midpoint of a concentration-inhibition curve.

Each structure is given as a SMILES string. Read-outs that look alike come from different tables or passages of the source. Some results are limits rather than exact numbers.

For the test, the target named is T1, purified recombinant human PDE9 (Homo sapiens, UniProt O76083).
T1 construct: FLAG; made in house; host or cells: baculovirus/Sf9
Put plainly: PDE9 enzyme inhibition scintillation proximity assay ([3H]cGMP hydrolysis). The format is biochemical. The following applies: for inhibition at 1 µM: 1 μM compound, read-out: inhibition against PDE9 at a concentration of 1 μM. On the procedure: The ability of the compounds of the invention to inhibit the PDE9 enzyme was determined using the following in vitro assay. The assay used purified recombinant human PDE9.
The assay uses [3H]cGMP which is hydrolysed by the PDE9 enzyme to the 5′-nucleotide [3H]GMP. The [3H]GMP binds to yttrium silicate scintillation proximity assay (SPA) beads, and detected by scintillation counting. Inhibition of activity is determined relative to the activity of uninhibited controls.
Phosphodiesterase Scintillation Proximity Assay (SPA) beads (Yttrium Silicate) were obtained from Amersham Biotech.
[^3H]Guanosine 3′,5′-Cyclic Phosphate ([^3H]-cGMP), Ammonium Salt was obtained from Amersham Biotech.
Buffer A was prepared containing Tris.HCl (20 mM), MgCl2.6H2O (5 mM) in water.
Buffer B was prepared containing Bovine Serum Albumin (2 mg/ml) (BSA) in Buffer A. It was prepared fresh and filter sterilised.
PDE9 enzyme solution was prepared in Buffer B (dilution factor determined such that no more than 30% breakdown of substrate occurred, but typically 1:35,000).
SPA beads were prepared by creating a suspension of beads in water (20 mg/ml) (28 ml per pack) containing 3 mM cold cGMP to effectively quench the reaction.
The compounds of the invention were diluted by a factor of 50 (i.e. 2 μl in 100 μl) when constituted in the final assay mix. Compound stock was prepared at 4 mM in DMSO. Dilute 1/8 with DMSO to give 500 μM solutions.
A 4 mM stock of standard inhibitor was prepared in DMSO. The standard inhibitor chosen was 5-(3-bromobenzyl)-3-n-propyl-1,6-dihydro-7H-pyrazolo[4,3-d]pyrimidin-7-one. The solution was further diluted with DMSO to give a 500 μM solution.
Following serial dilution, 2 μl of compound dilutions were dispensed in duplicate into microtitre plates with 2 μl DMSO added to controls as shown below.
To the microtitre plates containing solutions of compounds of the invention (2 μl) was added Buffer A (25 μl) to all wells. Buffer B (25 μl) was added to blank wells. Enzyme solution (25 μl) was added all wells except blanks. Substrate solution (50 μl) was added to each well. The plates were sealed and incubated for 15 minutes on a plate-shaker at 30 °C. SPA bead solution (50 μl) was added (containing excess cGMP) to each well to stop the reaction (Note: yttrium silicate beads are dense and require constant agitation whilst being added to each plate). The plates were shaken for 15 minutes to allow the beads to bind the GMP product and then allowed to settle for 30 minutes.
The plates were then analysed using a scintillation counter (such as the NXT TopCount)TM.
For each compound the percentage inhibition was calculated by the following equation:
(mean maximum−compound value)/(mean maximum−mean minimum)×100
IC50 values were determined from sigmoid dose response curves of enzyme activity vs. compound concentration.
On the technique in general: SPA uses beads or plates that emit light when radiolabelled molecules are held near them.

T1 sequence (O76083 whole entry): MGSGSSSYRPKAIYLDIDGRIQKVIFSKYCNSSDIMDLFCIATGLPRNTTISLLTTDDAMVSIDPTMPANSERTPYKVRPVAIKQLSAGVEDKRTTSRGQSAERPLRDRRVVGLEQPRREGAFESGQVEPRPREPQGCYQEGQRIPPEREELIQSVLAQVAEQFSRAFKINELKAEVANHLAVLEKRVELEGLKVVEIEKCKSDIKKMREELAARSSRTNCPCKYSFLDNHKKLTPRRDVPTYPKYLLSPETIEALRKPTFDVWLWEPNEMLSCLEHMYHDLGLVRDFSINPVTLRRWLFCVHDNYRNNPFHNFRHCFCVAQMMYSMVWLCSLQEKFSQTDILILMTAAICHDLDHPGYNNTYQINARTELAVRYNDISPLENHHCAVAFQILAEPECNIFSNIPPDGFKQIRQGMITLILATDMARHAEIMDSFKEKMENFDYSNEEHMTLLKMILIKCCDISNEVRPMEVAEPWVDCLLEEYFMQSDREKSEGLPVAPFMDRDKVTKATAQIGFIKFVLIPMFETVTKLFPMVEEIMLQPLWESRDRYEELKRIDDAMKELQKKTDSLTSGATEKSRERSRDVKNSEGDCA

As for `O=c1[nH]c(Cc2ccccc2OC(F)(F)F)nc2c(-c3ccccc3)n[nH]c12` [Compound 263, 5-(2-Trifluoromethoxybenzyl)-3-phenyl-1,6-dihydro-7H-pyrazolo[4,3-d]pyrimidin-7-one], the inhibition at 1 µM was over 40%.

For the compound `O=c1[nH]c(Cc2ccccc2OC(F)(F)F)nc2c(-c3cccnc3)n[nH]c12` [Compound 258], the IC50 (read-out: IC50 against PDE9) amounted to 141 nM. For the compound `CC(C)c1c2nc(Cc3cccc(Cl)c3)[nH]c(=O)c2nn1C` [Compound 262, 5-(3-Chlorobenzyl)-3-isopropyl-2-methyl-2,6-dihydro-7H-pyrazolo[4,3-d]pyrimidin-7-one], the inhibition at 1 µM is over 40%.

With `O=c1[nH]c(Cc2ccccc2OCc2ccccc2)nc2c(-c3cccnc3)n[nH]c12` [Compound 138, 3-(3-pyridinyl)-5-(2-benzyloxybenzyl)-1,6-dihydro-pyrazolo[4,3-d]pyrimidin-7-one], the inhibition at 1 µM is over 40%. As to `O=c1[nH]c(Cc2ccccc2OCc2ccccc2)nc2c(C3CCCC3)n[nH]c12` [Compound 204, 3-cyclopentyl-5-(2-benzyloxybenzyl)-1,6-dihydro-pyrazolo[4,3-d]pyrimidin-7-one], the inhibition at 1 µM was over 40%. Moreover, the IC50 (read-out: IC50 against PDE9) was 143 nM. In the case of `CCCc1n[nH]c2c(=O)[nH]c(Cc3cccc(Br)c3)nc12` [standard, 5-(3-bromobenzyl)-3-n-propyl-1,6-dihydro-7H-pyrazolo[4,3-d]pyrimidin-7-one, reference compound], the IC50 (range the standard inhibitor was expected to fall in, read-out: IC50 of the standard) is 30 to 50 nM. On to `O=c1[nH]c(Cc2ccccc2OC(F)(F)F)nc2c(C3CCCC3)n[nH]c12` [Compound 256, 3-Cyclopentyl-5-(2-trifluoromethoxybenzyl)-1,6-dihydro-pyrazolo[4,3-d]pyrimidin-7one], for which the inhibition at 1 µM is over 40%. Consider `CC(C)c1n[nH]c2c(=O)[nH]c(Cc3ccccc3OC(F)(F)F)nc12` [Compound 156, 3-isopropyl-5-(2-trifluoromethoxybenzyl)-1,6-dihydro-pyrazolo[4,3-d]pyrimidin-7-one], for which the inhibition at 1 µM was over 40%. On to `CC(C)c1n[nH]c2c(=O)[nH]c(Cc3ccccc3Oc3ccccc3)nc12` [Compound 52, 3-isopropyl-5-(2-phenoxybenzyl)-1,6-dihydro-pyrazolo[4,3-d]pyrimidin-7-one], for which the inhibition at 1 µM was over 40%. In addition, where the note is “read-out: IC50 against PDE9”, the IC50 is 126 nM.
